# PubChem BioAssay (NCI)
# Where “and” joins values, the source holds several entries; their conditions need not be identical. Identical values can stand only once.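 Tested at 5 concentrations; 48 h exposure; 96-well plates; endpoints linearly interpolated, else capped at highest concentration. The concentration for 50% growth inhibition is given as GI50. TGI: total growth inhibition.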
# Experiments:
# Assay in all cases: NCI anticancer screen, dose series, 48 h
# 786-0 renal = test system: 786-0 renal
# MALME-3M melanoma = test system: MALME-3M melanoma
# NCI-H226 lung = test system: NCI-H226 lung
# NCI-H522 lung = test system: NCI-H522 lung
# OVCAR-8 ovarian = test system: OVCAR-8 ovarian
# SW-620 colon = test system: SW-620 colon
# UACC-257 melanoma = test system: UACC-257 melanoma
# K-562 leukemia = test system: K-562 leukemia
# RPMI-8226 leukemia = test system: RPMI-8226 leukemia
Compound,TGI (786-0 renal),TGI (MALME-3M melanoma),TGI (NCI-H226 lung),TGI (NCI-H522 lung),TGI (OVCAR-8 ovarian),TGI (SW-620 colon),TGI (UACC-257 melanoma),TGI (K-562 leukemia),TGI (RPMI-8226 leukemia),GI50 (786-0 renal),GI50 (MALME-3M melanoma),GI50 (NCI-H226 lung),GI50 (NCI-H522 lung),GI50 (OVCAR-8 ovarian),GI50 (RPMI-8226 leukemia),GI50 (SW-620 colon),GI50 (UACC-257 melanoma),GI50 (K-562 leukemia)
CC(NC(=O)C(=O)N/N=C1\C[C@@H](c2ccccc2)Nc2ccccc21)c1ccccc1 (some centres undefined),> 100 µM,99.6 µM,> 100 µM,> 100 µM,> 100 µM,> 100 µM,> 100 µM,,,,,,,,,,,
Cn1c(=O)c(C(=O)NC(=O)NCCCCCOC(=O)CCCCCCCCCCC(=O)OCCCCCNC(=O)NC(=O)c2cn(Cc3ccccc3)c(=O)n(C)c2=O)cn(Cc2ccccc2)c1=O,> 100 µM,> 100 µM,> 100 µM,> 100 µM,> 100 µM,> 100 µM,> 100 µM,> 100 µM,> 100 µM,,,,,,,,,
CC1(C(=O)O)CCOc2ccccc21 (centres undefined),> 100 µM,> 100 µM,> 100 µM,,> 100 µM,> 100 µM,> 100 µM,> 100 µM,> 100 µM,,,,,,,,,
COC12CCC(C(C(=O)c3ccccc3)=C1C(=O)c1ccccc1)C(O)C2 (centres undefined),> 100 µM,> 100 µM,> 100 µM,> 100 µM,> 100 µM,> 100 µM,> 100 µM,> 100 µM,> 100 µM,,,,,,,,,
Cc1ccc(Nc2cc(C)nc(NCCCNc3ccnc4cc(Cl)ccc34)n2)cc1,3.31 µM,3.74 µM,5.91 µM,3.37 µM,3.25 µM,2.83 µM,3.22 µM,,3.95 µM,1.73 µM,1.82 µM,2.14 µM,1.77 µM,1.67 µM,1.5 µM,1.31 µM,1.74 µM,
Cc1c(-c2nnc(-c3ccccc3)o2)c(=O)n(-c2ccccc2)n1C,> 100 µM,> 100 µM,> 100 µM,> 100 µM,> 100 µM,> 100 µM,> 100 µM,> 100 µM,> 100 µM,,,,,,,,,
CC(C)C(=O)[O-].CC(C)C(=O)[O-].N.N.N.N.[Co+3].[O-][Cl+3]([O-])([O-])[O-],> 100 µM,> 100 µM,,> 100 µM,> 100 µM,> 100 µM,> 100 µM,> 100 µM,> 100 µM,> 100 µM,> 100 µM,,> 100 µM,> 100 µM,> 100 µM,> 100 µM,> 100 µM,> 100 µM
NCc1c(C(N)=O)ncn1Cc1ccccc1,> 100 µM,,,,> 100 µM,> 100 µM,> 100 µM,> 100 µM,> 100 µM,,,,,,,,,
CCOC(=O)N1C(c2ccccc2)C=CC(c2ccccc2)N1C(=O)OCC (centres undefined),> 100 µM,> 100 µM,,,> 100 µM,> 100 µM,> 100 µM,> 100 µM,> 100 µM,,,,,,,,,
O=C(Nc1ccc(Br)cc1)C(=O)C(C(=O)c1ccccc1F)C1OC(=O)c2ccccc21 (centres undefined),56.8 µM,88.6 µM,19.7 µM,51.6 µM,70.3 µM,> 100 µM,> 100 µM,> 100 µM,64.8 µM,,,,,,,,,
CCOC(=O)C1=C(Nc2ccc(Br)cc2)OC/C1=N\NC(=O)c1ccccc1O,> 100 µM,> 100 µM,> 84 µM,34.2 µM,> 100 µM,> 49.4 µM,> 95.3 µM,38.6 µM,49.4 µM,,,,,,,,,
CC1CCCc2c1c1ccc3c(O)cccc3c1oc2=O (centres undefined),64.7 µM,> 100 µM,> 100 µM,55.8 µM,> 100 µM,> 100 µM,> 100 µM,> 100 µM,> 100 µM,,,,,,,,,
N#Cc1ccc(Oc2cccc(Oc3ccccc3)c2)cc1C#N,> 100 µM,> 100 µM,,> 100 µM,> 100 µM,> 100 µM,,> 100 µM,,> 100 µM,> 100 µM,,,> 100 µM,,,,
CCCCn1c2ccccc2c2ccc3c(c21)C(=O)C=CC3=O,> 100 µM,> 100 µM,> 100 µM,> 100 µM,> 100 µM,> 100 µM,> 100 µM,> 100 µM,> 100 µM,,,,,,,,,
O=C(Nc1nc2ccc([N+](=O)[O-])cc2s1)C(=O)C(C(=O)c1ccncc1)C1OC(=O)c2ccccc21 (centres undefined),> 100 µM,> 100 µM,> 100 µM,,> 100 µM,> 100 µM,> 100 µM,> 100 µM,> 100 µM,,,,,,,,,
CC(=O)[O-].[Zn].c1ccc(/C(=N\Nc2ccccn2)c2ccccn2)cc1,2.16 µM,1.58 µM,0.962 µM and 5.73 µM,2.06 µM,2.4 µM,1.63 µM,2.08 µM,2.35 µM,2.86 µM,0.366 µM,,0.212 µM,0.131 µM,0.0708 µM,,0.0319 µM,,
